System: rats subjected to embolic middle cerebral artery occlusion
Experiment: Adhesive removal test after embolic MCA occlusion
Format: in vivo, rat
Protocol: Male Wistar rats weighing 320 to 380 g were used in the present study. The middle cerebral artery (MCA) was occluded by placement of an embolus at the origin of the MCA.
Ischemic rats (n=9) were treated with the same volume of tap water as a control group. Functional tests were performed and body weight was measured before ischemia and at 4, 7, 14, 21, and 28 days after onset of MCA occlusion. All rats were killed 28 days after MCA occlusion. […] These rats were killed 1 hour after the last treatment for measurements of brain levels of cGMP. […] Experiments were also performed to examine brain PDE5, nonischemic rats and ischemic rats were killed at 2, 4, 24, 48, and 168 hours after the onset of ischemia (n=3 for each time point). Reverse transcription (RT)-polymerase chain reaction (PCR) was performed to detect PDE5 in brain tissue.
An adhesive removal test was used to measure somatosensory deficits and was performed before MCA occlusion and at 4, 7, 14, 21 and 28 days after MCA occlusion.

CCCc1nn(C)c2c(=O)[nH]c(-c3cc(S(=O)(=O)N4CCN(C)CC4)ccc3OCC)nc12 [Sildenafil]
Adhesive Removal Test (Sildenafil 2 mg/kg, 2 h, 4 d): 96.4 ± 9.8 s
Adhesive Removal Test (Sildenafil 2 mg/kg, 2 h, 7 d): 41.9 ± 8.4 s
Adhesive Removal Test (Sildenafil 2 mg/kg, 2 h, 14 d): 27.6 ± 3.9 s
Adhesive Removal Test (Sildenafil 2 mg/kg, 2 h, 21 d): 23.6 ± 5.1 s
Adhesive Removal Test (Sildenafil 2 mg/kg, 2 h, 28 d): 15.9 ± 3.8 s
Adhesive Removal Test (Sildenafil 2 mg/kg, 2 h group, Before Ischemia (baseline)): 7.0 ± 0.1 s
Adhesive Removal Test (Sildenafil 2 mg/kg, 24 h, 4 d): 102 ± 6.6 s
Adhesive Removal Test (Sildenafil 2 mg/kg, 24 h, 7 d): 49.4 ± 4.5 s
Adhesive Removal Test (Sildenafil 2 mg/kg, 24 h, 14 d): 14.1 ± 1.3 s
Adhesive Removal Test (Sildenafil 2 mg/kg, 24 h, 21 d): 14.0 ± 1.0 s
Adhesive Removal Test (Sildenafil 2 mg/kg, 24 h, 28 d): 10.7 ± 0.9 s
Adhesive Removal Test (Sildenafil 2 mg/kg, 24 h group, Before Ischemia (baseline)): 6.8 ± 0.3 s
Adhesive Removal Test (Sildenafil 5 mg/kg, 2 h, 4 d): 100.7 ± 9.2 s
Adhesive Removal Test (Sildenafil 5 mg/kg, 2 h, 7 d): 70.7 ± 10.8 s
Adhesive Removal Test (Sildenafil 5 mg/kg, 2 h, 14 d): 38.6 ± 7.9 s
Adhesive Removal Test (Sildenafil 5 mg/kg, 2 h, 21 d): 26.0 ± 6.6 s
Adhesive Removal Test (Sildenafil 5 mg/kg, 2 h, 28 d): 14.8 ± 3.9 s
Adhesive Removal Test (Sildenafil 5 mg/kg, 2 h group, Before Ischemia (baseline)): 16.7 ± 0.4 s

From US20120009152A1, “NITRIC OXIDE DONORS FOR TREATMENT OF DISEASE AND INJURY” (priority 2002, published 2012)
